Results on 19 compounds are retold here after patent publication US12583866B2, “Pyrido[2,3-b][1,4]oxazines or tetrahydropyrido[2,3-b][1,4]oxazepines as IAP antagonists” (BEIGENE, LTD., priority 2020, dated 2026).

Test [1] addresses T1, recombinant human cIAP1-BIR3 protein (Homo sapiens, UniProt Q13490).
T1 construct: recombinant human cIAP1-BIR3 protein; purchased Reaction biology APT-11-370
Nature of the test: Recombinant human c-IAP1-BIR3 biochemical assay (HTRF, peptide displacement). The following applies: 1.2 nM cIAP1-BIR3, 3 nM AbuRPF-K(5-Fam)-NH2 peptide, read-out: Protein binding IC50 (nM) c-IAP1. Summed up: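 1.2 nM cIAP1-BIR3 preincubated 1 h at room temperature with compound (10 points, 4-fold, top 10 uM) in 20 mM HEPES pH 7.5, 50 mM NaCl, 1 mM DTT; 3 nM AbuRPF-K(5-Fam)-NH2 then added for 1 h, then anti-6His Tb cryptate for 1 h. 520/490 nm ratio; IC50 by four-parameter logistic fit.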

Test [2] deals with T2, recombinant human cIAP2-BIR3 protein (Homo sapiens, UniProt Q13489).
T2 construct: recombinant human cIAP2-BIR3 protein; purchased Reaction biology APT-11-372
Nature of the test: Recombinant human c-IAP2-BIR3 biochemical assay (HTRF, peptide displacement). As to conditions: 3.7 nM cIAP2-BIR3, 3.7 nM AbuRPF-K(5-Fam)-NH2 peptide, read-out: Protein binding IC50 (nM) c-IAP2. Summed up:
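3.7 nM protein pre-incubated 1 h at room temperature with compounds (top 10 uM, 4-fold, 10 points) in 20 mM HEPES pH 7.5, 50 mM NaCl, 0.005% Tween-20, 1 mM DTT. Then 3.7 nM AbuRPF-K(5-Fam)-NH2 for 1 h, then anti-6His Tb cryptate 1 h. IC50 from 520/490 nm HTRF ratio, four-parameter logistic fit.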
On the technique in general: In TR-FRET formats the signal depends on donor and acceptor labels being close together.

Test [3] concerns the target T3, recombinant human XIAP-BIR3 protein (Homo sapiens, UniProt P98170).
T3 construct: recombinant human XIAP-BIR3 protein; purchased Reaction biology APT-11-374
Nature of the test: Recombinant human XIAP-BIR3 biochemical assay (HTRF, peptide displacement). The following applies: 3.7 nM XIAP-BIR3, 7.6 nM AbuRPF-K(5-Fam)-NH2 peptide, read-out: Protein binding IC50 (nM) XIAP. Summed up: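 3.7 nM His-tagged XIAP-BIR3 was preincubated 1 h RT with compound (top 10 µM, 4-fold, 10 points) in 20 mM HEPES pH 7.5, 50 mM NaCl, 0.005% Tween-20, 1 mM DTT. 7.6 nM AbuRPF-K(5-Fam)-NH2 peptide was then added, followed by anti-6His Tb cryptate, 1 h each. HTRF 520/490 nm ratio; four-parameter logistic IC50.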

Counter-ions that a name gives are not always drawn.

T1 sequence (Q13490 253-363 limits assumed): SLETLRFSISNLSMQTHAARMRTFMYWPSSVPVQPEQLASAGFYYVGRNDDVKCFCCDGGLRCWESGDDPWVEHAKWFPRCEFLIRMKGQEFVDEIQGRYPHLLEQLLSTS
T2 sequence (Q13489 238-349 limits assumed): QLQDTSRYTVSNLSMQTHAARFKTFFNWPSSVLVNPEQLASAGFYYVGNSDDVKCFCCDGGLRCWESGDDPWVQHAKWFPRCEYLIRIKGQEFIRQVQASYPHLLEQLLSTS
T3 sequence (P98170 241-356 limits assumed): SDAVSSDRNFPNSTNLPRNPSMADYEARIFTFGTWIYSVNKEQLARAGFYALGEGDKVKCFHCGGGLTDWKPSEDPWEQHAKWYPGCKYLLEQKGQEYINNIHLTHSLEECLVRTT

Consider `C[C@@H]1CN(CC(=O)N2CCCOc3ncc(Cc4ccc(F)cc4)cc32)[C@@H](CN2CCOC[C@H]2C)CN1` [Compound 18, 1-(8-(4-fluorobenzyl)-3,4-dihydropyrido[2,3-b][1,4]oxazepin-1(2H)-yl)-2-((2R,5R)-5-methyl-2-(((R)-3-methylmorpholino)methyl)piperazin-1-yl)ethan-1-one], for which the 50% inhibitory concentration (IC50) in test [1], in test [2] and in test [3] was more than 1000 nM throughout.
Consider `C[C@@H]1CN(CC(=O)N2c3cc(Cc4ccc(F)cc4)c(N)nc3OC[C@@H]2C)[C@@H](CN2[C@H](C)COC[C@H]2C)CN1` [Compound 115, 1-((S)-6-amino-7-(4-fluorobenzyl)-2-methyl-2,3-dihydro-1H-pyrido[2,3-b][1,4]oxazin-1-yl)-2-((2R,5R)-2-(((3R,5R)-3,5-dimethylmorpholino)methyl)-5-methylpiperazin-1-yl)ethan-1-one], for which the concentration for half-maximal inhibition (IC50) in test [1] was 0.17 nM; in test [2], 0.28 nM; in test [3], 6.9 nM.
The like results for `C[C@@H]1CN(CC(=O)N2c3cc(Cc4ccc(F)cc4)c(NCCO)nc3OC[C@@H]2C)[C@@H](CN2[C@H](C)COC[C@H]2C)CN1` [Compound 109] were, in that order, 0.24 nM, 0.45 nM and 10.3 nM.
For the compound `CC1CN(C(=O)CN2C[C@@H](C)NC[C@@H]2CN2CCOC[C@H]2C)c2cc(Cc3ccc(F)cc3)c(Br)nc2O1` (stereo partly drawn) [Compound 11, 1-(6-bromo-7-(4-fluorobenzyl)-3-methyl-2,3-dihydro-1H-pyrido[2,3-b][1,4]oxazin-1-yl)-2-((2R,5R)-5-methyl-2-(((R)-3-methylmorpholino)methyl)piperazin-1-yl)ethan-1-one], the concentration for half-maximal inhibition (IC50) was 8 nM in test [1], 17 nM in test [2] and 220 nM in test [3].
`C[C@@H]1CN(CC(=O)N2c3cc(Cc4ccc(F)cc4)c(N4CCOCC4)nc3OC[C@@H]2C)[C@@H](CN2[C@H](C)COC[C@H]2C)CN1` [Compound 106, 2-((2R,5R)-2-(((3R,5R)-3,5-dimethylmorpholino)methyl)-5-methylpiperazin-1-yl)-1-((S)-7-(4-fluorobenzyl)-2-methyl-6-morpholino-2,3-dihydro-1H-pyrido[2,3-b][1,4]oxazin-1-yl)ethan-1-one]: the IC50 was 0.33 nM in test [1], 0.94 nM in test [2] and 16.9 nM in test [3].
As to `C[C@@H]1CN(CC(=O)N2CCOc3ncc(Cc4ccc(F)cc4)cc32)[C@@H](CN2C(=O)OC[C@H]2C(F)F)CN1` [Compound 15, (S)-4-(difluoromethyl)-3-(((2R,5R)-1-(2-(7-(4-fluorobenzyl)-2,3-dihydro-1H-pyrido[2,3-b][1,4]oxazin-1-yl)-2-oxoethyl)-5-methylpiperazin-2-yl)methyl)oxazolidin-2-one], the figures for the IC50 in test [1], in test [2] and in test [3] were 3.4 nM, 6.9 nM and 196 nM, respectively.
Turning to `CCOc1nc2c(cc1Cc1ccc(F)cc1)N(C(=O)CN1C[C@@H](C)NC[C@@H]1CN1[C@H](C)COC[C@H]1C)[C@@H](C)CO2` [Compound 87], the half-maximal inhibitory concentration (IC50) turned out to be 0.18 nM in test [1], 0.23 nM in test [2] and 3.3 nM in test [3].
Turning to `C[C@@H]1CN(CC(=O)N2CCOc3nc(C#N)c(Cc4ccc(F)cc4)cc32)[C@@H](CN2CCOC[C@H]2C)CN1` [Compound 1, 7-(4-fluorobenzyl)-1-(2-((2R,5R)-5-methyl-2-(((R)-3-methylmorpholino)methyl)piperazin-1-yl)acetyl)-2,3-dihydro-1H-pyrido[2,3-b][1,4]oxazine-6-carbonitrile formate], the results for the IC50 in test [1], in test [2] and in test [3] were 0.5 nM, 0.9 nM and 26 nM, respectively.
The like results for `CCS(=O)(=O)Nc1nc2c(cc1Cc1ccc(F)cc1)N(C(=O)CN1C[C@@H](C)NC[C@@H]1CN1[C@H](C)COC[C@H]1C)[C@@H](C)CO2` [Compound 122] were, in that order, 0.19 nM, 0.29 nM and 2.9 nM.
With `C[C@@H]1CN(CC(=O)N2c3cc(Cc4ccc(F)cc4)c(C(=O)NCC4CC4)nc3OC[C@@H]2C)[C@@H](CN2[C@H](C)COC[C@H]2C)CN1` [Example 70, (S)—N-(cyclopropylmethyl)-1-(2-((2R,5R)-2-(((3R,5R)-3,5-dimethylmorpholino)methyl)-5-methylpiperazin-1-yl)acetyl)-7-(4-fluorobenzyl)-2-methyl-2,3-dihydro-1H-pyrido[2,3-b][1,4]oxazine-6-carboxamide], the values for the half-maximal inhibitory concentration (IC50) in test [1], in test [2] and in test [3] were 0.16 nM, 0.27 nM and 1.9 nM, respectively.
For `C[C@@H]1CN(CC(=O)N2c3cc(Cc4ccc(F)cc4)c(C(=O)Nc4ccc(F)cc4)nc3OC[C@@H]2C)[C@@H](CN2[C@H](C)COC[C@H]2C)CN1` [Example 71, (S)-1-(2-((2R,5R)-2-(((3R,5R)-3,5-dimethylmorpholino)methyl)-5-methylpiperazin-1-yl)acetyl)-7-(4-fluorobenzyl)-N-(4-fluorophenyl)-2-methyl-2,3-dihydro-1H-pyrido[2,3-b][1,4]oxazine-6-carboxamide], in that order: 0.26 nM, 0.57 nM and 7.9 nM.
Consider `C[C@@H]1CN(CC(=O)N2CCOc3nc(O)c(Cc4ccc(F)cc4)cc32)[C@@H](CN2CCOC[C@H]2C)CN1` [Compound 9, 1-(7-(4-fluorobenzyl)-6-hydroxy-2,3-dihydro-1H-pyrido[2,3-b][1,4]oxazin-1-yl)-2-((2R,5R)-5-methyl-2-(((R)-3-methylmorpholino)methyl)piperazin-1-yl)ethan-1-one], for which the concentration for half-maximal inhibition (IC50) in test [1] was 0.85 nM; in test [2] it was 1.3 nM; in test [3], 10 nM.
On to `COC[C@H]1COc2ncc(Cc3ccc(F)cc3)cc2N1C(=O)CN1C[C@@H](C)NC[C@@H]1CN1CCOC[C@H]1C` [Compound 35, 1-((S)-7-(4-fluorobenzyl)-2-(methoxymethyl)-2,3-dihydro-1H-pyrido[2,3-b][1,4]oxazin-1-yl)-2-((2R,5R)-5-methyl-2-(((R)-3-methylmorpholino)methyl)piperazin-1-yl)ethan-1-one], for which the results for the IC50 in test [1], in test [2] and in test [3] were 0.33 nM, 0.99 nM and 46 nM, respectively.
For the compound `CCOC[C@@H]1COCCN1C[C@H]1CN[C@H](C)CN1CC(=O)N1c2cc(Cc3ccc(F)cc3)c(CO)nc2OC[C@@H]1C` [Compound 53], the values for the IC50 in test [1], in test [2] and in test [3] were 0.46 nM, 1.2 nM and 12 nM, respectively.
With `C[C@@H]1CN(CC(=O)N2c3cc(Cc4ccc(F)cc4)c(CN4CCOCC4)nc3OC[C@@H]2C)[C@@H](CN2[C@H](C)COC[C@H]2C)CN1` [Compound 92], the half-maximal inhibitory concentration (IC50) was 0.37 nM in test [1], 0.53 nM in test [2] and 8.7 nM in test [3].
`Cc1ccc([C@H]2COc3ncc(Cc4ccc(F)cc4)cc3N2C(=O)CN2C[C@@H](C)NC[C@@H]2CN2CCOC[C@H]2C)cc1` [Compound 30, 1-((S)-7-(4-fluorobenzyl)-2-(p-tolyl)-2,3-dihydro-1H-pyrido[2,3-b][1,4]oxazin-1-yl)-2-((2R,5R)-5-methyl-2-(((R)-3-methylmorpholino)methyl)piperazin-1-yl)ethan-1-one]: the IC50 in test [1] was 0.35 nM; in test [2] it was 0.72 nM; in test [3], 7.3 nM.
Take `COCCC(=O)Nc1nc2c(cc1Cc1ccc(F)cc1)N(C(=O)CN1C[C@@H](C)NC[C@@H]1CN1[C@H](C)COC[C@H]1C)[C@@H](C)CO2` [Compound 121]: the IC50 stood at 0.2 nM in test [1], 0.27 nM in test [2] and 4.2 nM in test [3].
Take `C[C@@H]1CN(CC(=O)N2c3cc(Cc4ccc(F)cc4)c(CO)nc3OC[C@@H]2C)[C@@H](CN2CCOCC23CC3)CN1` [Compound 50, 2-((2R,5R)-2-((7-oxa-4-azaspiro[2.5]octan-4-yl)methyl)-5-methylpiperazin-1-yl)-1-((S)-7-(4-fluorobenzyl)-6-(hydroxymethyl)-2-methyl-2,3-dihydro-1H-pyrido[2,3-b][1,4]oxazin-1-yl)ethan-1-one]: the IC50 in test [1] was 0.44 nM; in test [2], 0.93 nM; in test [3] it was 14 nM.
On to `C[C@@H]1CN(CC(=O)N2c3cc(Cc4ccc(F)cc4)c(C(N)=O)nc3OC[C@@H]2C)[C@@H](CN2CCOC[C@H]2C)CN1` [Compound 31, (S)-7-(4-fluorobenzyl)-2-methyl-1-(2-((2R,5R)-5-methyl-2-(((R)-3-methylmorpholino)methyl)piperazin-1-yl)acetyl)-2,3-dihydro-1H-pyrido[2,3-b][1,4]oxazine-6-carboxamide], for which the half-maximal inhibitory concentration (IC50) in test [1] is 0.33 nM; in test [2], 0.71 nM; in test [3] it was 5.6 nM.

Broadly, the IC50 is the point on the concentration scale where inhibition reaches its midpoint.
